# From patent US11492348B2, “Tri-substituted aryl and heteroaryl derivatives as modulators of PI3-kinase and autophagy pathways” (Neuropore Therapies, Inc., priority 2018, dated 2022)
# Tests used:
# PI3Kα = PI3Kα (Homo sapiens (Human), UniProt P42336); assay: Inhibition of PI3Kα (ADP-Glo kinase activity assay, ATP to ADP conversion); format: biochemical; details: 25 μM PIP2:PS, 60 μM ATP, 30 min reaction, luminescence
# Outline: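 Recombinant active PI3Kα (1.1 nM) in HEPES pH 7.5 buffer with 6 mM MgCl2 and 8 mM DTT was preincubated with compound for 0 or 3 h. The reaction ran for 30 min with 25 µM PIP2:PS and 60 µM ATP, and ADP formation was read by ADP-Glo luminescence. IC50 came from a 12-point, 1:3 series fitted with a 4-parameter model, bottom fixed to reference inhibitor controls and top floating.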
# [1] = system: (Ser-473) pAKT in B103 (Rat Neuroblastoma) cells; assay: pAKT protocol: loss of (Ser-473) pAKT by AlphaScreen in insulin-stimulated B103 cells; format: cell-based; details: (Ser-473) pAKT/total AKT IC50, 2-hour pretreatment, 2.5 μg/mL insulin 20 minutes
# Outline: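 Rat neuroblastoma B103 cells, serum-starved 6 h, were pretreated 2 h with inhibitors (6-point 1:3 series, 0.5% DMSO) before insulin stimulation. Lysate Ser-473 pAKT and total AKT measured by AlphaScreen; pAKT/total AKT ratio fitted to 4-parameter curve, bottom constrained to reference control, top anchored to DMSO.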
# mTor kinase = mTor kinase (Homo sapiens (Human), UniProt P42345); assay: mTor assay (33P-ATP filter-binding kinase assay); format: biochemical; details: 2 hours at room temperature
# Procedure: The substrate was prepared in base reaction buffer (20 mM Hepes (pH 7.5), 10 mM MgCl2, 1 mM EGTA, 0.02% Brij35, 0.02 mg/ml BSA, 0.1 mM Na3VO4, 2 mM DTT, 1% DMSO), and required cofactors were added to the substrate solution. The mTor kinase was delivered into the substrate solution, and the solution was gently mixed. Testing compounds were dissolved in 100% DMSO to specific concentration. The serial dilution was conducted by Integra Viaflo Assist in DMSO. The compounds were delivered into the kinase reaction mixture by Acoustic technology (Echo550; nanoliter range), and the reaction mixture was incubated for 20 min at room temperature. Then, 33P-ATP (Specific activity 10 μCi/μl) was delivered into the reaction mixture to initiate the reaction. The reaction mixture was incubated for 2 hours at room temperature. Radioactivity was detected by a filter-binding method. Kinase activity data were expressed as the percent remaining kinase activity in test samples compared to vehicle (dimethyl sulfoxide) reactions. IC50 values and curve fits were obtained using Prism (GraphPad Software).
# PI3Kα, sequence (P42336 whole entry): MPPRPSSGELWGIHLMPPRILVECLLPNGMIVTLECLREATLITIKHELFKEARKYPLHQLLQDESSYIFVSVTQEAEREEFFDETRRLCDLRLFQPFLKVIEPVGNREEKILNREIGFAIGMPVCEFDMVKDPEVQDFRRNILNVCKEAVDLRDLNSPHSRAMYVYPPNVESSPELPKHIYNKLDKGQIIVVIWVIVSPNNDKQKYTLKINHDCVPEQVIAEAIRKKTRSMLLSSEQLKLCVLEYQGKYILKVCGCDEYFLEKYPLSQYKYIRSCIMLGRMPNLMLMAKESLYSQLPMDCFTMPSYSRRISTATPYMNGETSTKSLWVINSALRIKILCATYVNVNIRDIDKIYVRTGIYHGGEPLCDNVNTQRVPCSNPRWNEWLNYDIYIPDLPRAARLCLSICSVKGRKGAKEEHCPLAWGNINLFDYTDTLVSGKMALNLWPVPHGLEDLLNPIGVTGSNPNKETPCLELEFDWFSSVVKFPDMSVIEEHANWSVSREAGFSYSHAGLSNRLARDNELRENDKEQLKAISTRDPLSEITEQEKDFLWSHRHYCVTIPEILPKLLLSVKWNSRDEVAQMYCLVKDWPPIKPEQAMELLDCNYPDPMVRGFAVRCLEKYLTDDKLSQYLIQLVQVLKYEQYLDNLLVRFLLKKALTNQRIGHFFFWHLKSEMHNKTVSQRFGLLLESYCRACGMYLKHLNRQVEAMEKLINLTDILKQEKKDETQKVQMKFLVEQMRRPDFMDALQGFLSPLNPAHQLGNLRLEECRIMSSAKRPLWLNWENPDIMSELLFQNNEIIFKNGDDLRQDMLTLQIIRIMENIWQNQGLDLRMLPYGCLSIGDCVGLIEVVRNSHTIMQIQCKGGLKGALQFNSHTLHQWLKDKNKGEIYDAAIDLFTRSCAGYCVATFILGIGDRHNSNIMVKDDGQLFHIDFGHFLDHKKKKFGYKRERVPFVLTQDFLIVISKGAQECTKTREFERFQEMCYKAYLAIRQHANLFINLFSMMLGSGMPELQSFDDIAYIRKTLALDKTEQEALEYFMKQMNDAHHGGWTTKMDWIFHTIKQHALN
# PI3Kα, sequence (P27986 whole entry partner): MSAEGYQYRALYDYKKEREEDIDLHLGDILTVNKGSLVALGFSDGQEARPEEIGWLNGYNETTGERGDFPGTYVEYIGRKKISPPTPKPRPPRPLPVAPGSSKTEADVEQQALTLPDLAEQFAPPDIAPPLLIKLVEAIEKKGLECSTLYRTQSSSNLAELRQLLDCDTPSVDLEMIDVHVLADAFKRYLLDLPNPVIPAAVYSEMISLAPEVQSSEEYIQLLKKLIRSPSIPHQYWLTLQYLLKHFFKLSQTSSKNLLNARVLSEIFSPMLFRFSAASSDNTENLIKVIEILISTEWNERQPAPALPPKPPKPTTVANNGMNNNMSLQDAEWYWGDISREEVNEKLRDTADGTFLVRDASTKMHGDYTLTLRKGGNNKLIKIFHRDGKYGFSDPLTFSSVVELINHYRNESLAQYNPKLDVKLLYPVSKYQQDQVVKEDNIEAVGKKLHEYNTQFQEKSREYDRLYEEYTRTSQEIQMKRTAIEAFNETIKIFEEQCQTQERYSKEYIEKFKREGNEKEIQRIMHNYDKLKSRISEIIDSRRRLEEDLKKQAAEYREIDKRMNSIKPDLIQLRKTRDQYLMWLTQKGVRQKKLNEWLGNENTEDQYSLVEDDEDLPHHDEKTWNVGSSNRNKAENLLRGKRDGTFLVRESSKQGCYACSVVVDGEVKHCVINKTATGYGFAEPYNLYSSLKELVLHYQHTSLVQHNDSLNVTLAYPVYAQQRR
PI3Ka IC50 (PI3Kα) [nM],IC50 [1] [nM],IC50 (mTor kinase) [nM],SMILES
100,4100,1460,"Nc1cc(F)c(-c2cc(N3CCOCC3)cc(S(=O)(=O)[C@@H]3CCOC3)c2)cn1 [Compound 106, (R)-4-fluoro-5-(3-morpholino-5-((tetrahydrofuran-3-yl)sulfonyl)phenyl)pyridin-2-amine]"
67,3700,4330,"Nc1cc(Cl)c(-c2cc(N3CCOCC3)cc(S(=O)(=O)[C@@H]3CCOC3)c2)cn1 [Compound 107, (R)-4-chloro-5-(3-morpholino-5-((tetrahydrofuran-3-yl)sulfonyl)phenyl)pyridin-2-amine]"
400,8700,9900,"Nc1ncc(-c2cc(N3CCOCC3)cc(S(=O)(=O)c3cccc4ccoc34)c2)cn1 [Compound 110, 5-(3-(benzofuran-7-ylsulfonyl)-5-morpholinophenyl)pyrimidin-2-amine]"
380,14500,5400,"Nc1ncc(-c2cc(N3CCOCC3)cc(S(=O)(=O)c3cccc4c3OCC4)c2)cn1 [Compound 111, 5-(3-((2,3-dihydrobenzofuran-7-yl)sulfonyl)-5-morpholinophenyl)pyrimidin-2-amine]"
66,570,63,"Nc1ncc(-c2cc(S(=O)(=O)c3ccccc3)cc(N3CCOCC3)n2)cn1 [Compound 115, 5-(6-morpholino-4-(phenylsulfonyl)pyridin-2-yl)pyrimidin-2-amine]"
110,4000,4700,"Nc1ncc(-c2cc(N3CCOCC3)cc(S(=O)(=O)C3COc4ccccc43)c2)cn1 (stereo not drawn) [Compound 119, 5-(3-((2,3-dihydrobenzofuran-3-yl)sulfonyl)-5-morpholinophenyl)pyrimidin-2-amine]"
91,640,480,"Nc1ncc(-c2cc(Oc3ccccc3)cc(N3CCOCC3)n2)cn1 [Compound 120, 5-(6-morpholino-4-phenoxypyridin-2-yl)pyrimidin-2-amine]"
37,480,510,"Nc1ncc(-c2cc(C(=O)c3ccccc3)cc(N3CCOCC3)n2)cn1 [Compound 122, (2-(2-aminopyrimidin-5-yl)-6-morpholinopyridin-4-yl)(phenyl)methanone]"
46,460,560,"Nc1ncc(-c2cc(C(F)(F)c3ccccc3)cc(N3CCOCC3)n2)cn1 [Compound 123, 5-(4-(Difluoro(phenyl)methyl)-6-morpholinopyridin-2-yl)pyrimidin-2-amine]"
210,810,270,"CC(c1ccccc1)c1cc(-c2cnc(N)nc2)nc(N2CCOCC2)c1 (stereo not drawn) [Compound 125, 5-(6-morpholino-4-(1-phenylethyl)pyridin-2-yl)pyrimidin-2-amine]"
56,380,130,"Nc1ncc(-c2cc(C3(c4ccccc4)CC3)cc(N3CCOCC3)n2)cn1 [Compound 127, 5-(6-morpholino-4-(1-phenylcyclopropyl)pyridin-2-yl)pyrimidin-2-amine]"
34,3460,2950,"Nc1ncc(-c2cc(OC3CN(C(=O)C4CC4)C3)cc(N3CCOCC3)n2)cn1 [Compound 129, (3-((2-(2-aminopyrimidin-5-yl)-6-morpholinopyridin-4-yl)oxy)azetidin-1-yl)(cyclopropyl)methanone]"
23,750,1750,"Nc1ncc(-c2cc(OC3CCOC3)cc(N3CCOCC3)n2)cn1 (stereo not drawn) [Compound 130, 5-(6-morpholino-4-((tetrahydrofuran-3-yl)oxy)pyridin-2-yl)pyrimidin-2-amine]"
23,560,590,"Nc1ncc(-c2cc(C(=O)C3CCOCC3)cc(N3CCOCC3)n2)cn1 [Compound 131, (2-(2-aminopyrimidin-5-yl)-6-morpholinopyridin-4-yl)(tetrahydro-2H-pyran-4-yl)methanone]"
12,400,440,"Nc1ncc(-c2cc(C(F)(F)C3CCOCC3)cc(N3CCOCC3)n2)cn1 [Compound 133, 5-(4-(difluoro(tetrahydro-2H-pyran-4-yl)methyl)-6-morpholinopyridin-2-yl)pyrimidin-2-amine]"
70,380,450,"Nc1ncc(-c2cc(Oc3ccccc3Cl)cc(N3CCOCC3)n2)cn1 [Compound 134, 5-(4-(2-chlorophenoxy)-6-morpholinopyridin-2-yl)pyrimidin-2-amine]"
79,1620,700,"COc1ccccc1Oc1cc(-c2cnc(N)nc2)nc(N2CCOCC2)c1 [Compound 135, 5-(4-(2-methoxyphenoxy)-6-morpholinopyridin-2-yl)pyrimidin-2-amine]"
370,1510,2060,"Nc1ncc(-c2cc(Oc3ccccc3OC(F)(F)F)cc(N3CCOCC3)n2)cn1 [Compound 136, 5-(6-morpholino-4-(2-(trifluoromethoxy)phenoxy)pyridin-2-yl)pyrimidin-2-amine]"
75,450,370,"Cc1ccccc1Oc1cc(-c2cnc(N)nc2)nc(N2CCOCC2)c1 [Compound 137, 5-(6-morpholino-4-(o-tolyloxy)pyridin-2-yl)pyrimidin-2-amine]"
14,190,1100,"Nc1ncc(-c2cc(C(=O)c3ccccc3Cl)cc(N3CCOCC3)n2)cn1 [Compound 138, (2-(2-aminopyrimidin-5-yl)-6-morpholinopyridin-4-yl)(2-chlorophenyl)methanone]"
